From patent US20100216661A1, “Diagnostic Assay” (priority 2007, published 2010)
Blank lines part the entries; values can stand above or below the substance they belong to.

Columns and labels:
[1] = system: anti-RhD monoclonal antibody T22 (LHM 169/80); assay: Biopanning of phage-peptide libraries with anti-RhD T22; format: binding, Human
From the text: (§1) Three different phage libraries from New England Biolabs. (Ph.D. 7 and Ph.D. 12 displaying linear 7- and 12-mer peptides, respectively and Ph.D. C7C displaying 7-mer peptides constrained by a disulphide bridge at their termini) and a linear 15mer library (kindly provided by Prof. George P. Smith, University of Missouri) were used in biopanning experiments with 10 different monoclonal antibodies and a polyclonal preparation (Table 1).
(§2) For each target antibody/library combination, a separate well of a 96-well Immulon 4 flat-bottomed ELISA plate (Thermo Labsystems) was coated with 5 μg of antibody in 150 μl ELISA coating buffer (15 mM Na2CO3, 35 mM NaHCO3, pH9.6). Plates were sealed and incubated at 4° C. overnight. Unbound antibody was discarded and 350 μl of blocking buffer (0.1M NaHCO3/3% skimmed milk powder) was added to each well. Plates were sealed and incubated for 1 hour at 4° C. The blocking buffer was removed and the wells were washed six times with 300 μl TBS/0.1% Tween 20. Approximately 2×10^11 plaque forming units (pfu) in 100 μl TBS/0.1% Tween 20 were added to each well and the plates were incubated at room temperature for 1 hour. Wells were washed ten times with 300 μl TBS/0.1% Tween 20. Bound phage were eluted by incubation with 100 μl of 0.2M glycine-HCl/BSA, pH2.2 (1 mg/ml) for 10 minutes, then neutralised with 15 μl of 1M Tris-HCL (pH9.1). An aliquot of the Round 1 eluate was removed and titred. The remainder of the eluted phage were amplified by infection of E. coli ER2538 cells for 4.5 hours at 37° C. The cultures were centrifuged for 10 minutes at 10,000 rpm at 4° C. The supernatants were recovered, ⅙ volume PEG/NaCl (20% polyethylene glycol 8000; 2.5M NaCl) added, then incubated overnight at 4° C. The PEG-precipitated phage were centrifuged at 10,000 rpm for 15 minutes at 4° C. The supernatant was removed and the phage pellet resuspended in 200 μl TBS. Two further rounds of panning were undertaken and approximately 2×10^11 pfu of the Round 2 or Round 3 amplified eluates were used as input phage. Round 3 eluates were titrated but not amplified. Individual plaques were amplified and subjected to PCR amplification, prior to DNA sequence analysis. The specificity of peptide-antibody binding was subsequently determined using both phage ELISA and SPOTs techniques.

[2] = system: anti-RhD monoclonal antibody T27 (LHM169/81); assay: Biopanning of phage-peptide libraries with anti-RhD T27; format: binding, Human
From the text: as §1, §2

[3] = system: anti-RhD monoclonal antibody T10 (LHM76/55); assay: Biopanning of phage-peptide libraries with anti-RhD T10; format: binding, Human; settings: phage-peptide libraries; three rounds of panning
From the text: as §1, §2

[4] = system: polyclonal anti-RhD preparation (Human Anti-D Ig); assay: Biopanning of phage-peptide libraries with polyclonal anti-RhD; format: binding; settings: for Panning Antibody (antibody that selected the phage-peptide in biopanning): biopanning of phage-peptide libraries with polyclonal anti-RhD preparation
From the text: as §1, §2

[5] = system: anti-Fy^b monoclonal antibody (LM447); assay: SPOTs membrane hybridisation with anti-Fy^b antibody; format: binding, Murine; settings: for SPOTs binding of anti-Fy^b antibody LM447 to membrane-synthesised peptide: FIG. 2, 20 Fyb peptides in duplicate, CPep75 (Spot 21) positive control, 2 μg/ml primary antibody, chemiluminescence; for SPOTs binding of anti-Fy^b antibody LM447 to consensus sequence-derived substituted peptides: FIG. 6, 16 peptides Fyb72-87, signal dramatically lower than positive control CPep75 (Spot 17)
Procedure: The peptide mimotopes were synthesised by the SPOT method (Frank; 1992) using F-moc chemistry. The peptides were anchored to an amino-PEG derivatised cellulose membrane (Intavis AG) and synthesised as discrete spots. Synthesis was by stepwise elongation of the peptide chain from C-terminus to the N-terminus, by manual pipetting of the respective amino acids, according to the Sigma Genosys protocol. Incubation times were modified when using Intavis AG membranes. After addition of the final amino acid, the terminal residues and side chains of the peptides were deprotected and the membrane was washed with methanol; air dried and then stored at −20° C. prior to use.
A membrane was placed in a 50 ml Falcon tube and blocked overnight at 4° C. with gentle agitation in TBS/0.25% Tween 20/5% skimmed milk powder. A 2 μg/ml dilution of the primary (1°) antibody (monoclonal or polyclonal) was prepared in TBS/0.25% Tween20/5% skimmed milk powder before incubation with the membrane for 1 hour at room temperature on a spiral rotor. Following 4 washes, each for 5 minutes with 20 ml of TBS/0.25% Tween20, the membrane was incubated for 1 hour at room temperature with a 1/5000 dilution of the secondary (2°) antibody, prepared in TBS/0.25% Tween20/5% skimmed milk powder. Peroxidase labelled rabbit anti-mouse IgG (Sigma) was used for the detection of the murine anti-Fy^a (LM487) and anti-Fy^b (LM447) 1° antibodies and peroxidase labelled goat anti-human IgG (Pharmacia) for the detection of the human 1° antibodies. Following 4 washes, each for 5 minutes with 20 ml of TBS/0.25% Tween20, the membrane was blotted to remove excess fluid. Bound antibody was detected by chemiluminescence. ECL detection reagents (Amersham Biosciences) were mixed and overlaid on the membrane for 2 minutes. The chemiluminescent substrate was removed and the membrane blotted to remove excess fluid. Positive spots were visualised following exposure to Hyperfilm ECL (Amersham Biosciences) for a series of short incubation times (5 seconds to 10 minutes).

Substance: RhD 25 (FHWSWYTPSRPS)
Panning Antibody (antibody that selected the phage-peptide in biopanning) [1]: RhD T22

Substance: RhD 36 (HHVFTPNCYPIC)
Panning Antibody (antibody that selected the phage-peptide in biopanning) [1]: RhD T22

Substance: RhD 4 (HTALSTS)
Panning Antibody (antibody that selected the phage-peptide in biopanning) [2]: RhD T27

Substance: RhD 10 (NYPAVVSNSLLA)
Panning Antibody (antibody that selected the phage-peptide in biopanning) [2]: RhD T27

Substance: RhD 26 (HSSWWLALAKPT)
Panning Antibody (antibody that selected the phage-peptide in biopanning) [1]: RhD T22

Substance: RhD 9 (WHFEWWRATPSG)
Panning Antibody (antibody that selected the phage-peptide in biopanning) [2]: RhD T27

Substance: Rh0 37 (WHWSSLSWPALP)
Panning Antibody (antibody that selected the phage-peptide in biopanning) [1]: RhD T22

Substance: RhD 24 (FHWWPRTQDPHR)
Panning Antibody (antibody that selected the phage-peptide in biopanning) [1]: RhD T22

Substance: RhD 30 (HLSSRHLFVPLS)
Panning Antibody (antibody that selected the phage-peptide in biopanning) [1]: RhD T22

Substance: RhD 3 (NLLPAKL)
Panning Antibody (antibody that selected the phage-peptide in biopanning) [2]: RhD T27

Substance: RhD 13 (VIDWLLCPRGFSACM)
Panning Antibody (antibody that selected the phage-peptide in biopanning) [2]: RhD T27

Substance: RhD52: RhD peptide mimotope, Table 4 (HSSWYIQHFPPL)
Selection by biopanning with anti-RhD monoclonal antibody T10 [3]: selected
Selection by biopanning with polyclonal anti-RhD preparation ([4]; phage-peptide libraries, three rounds of panning): selected

Substance: RhD 104 (WPHQVHKHIYRQ)
Panning Antibody (antibody that selected the phage-peptide in biopanning) [4]: RhD

SPOTs binding of anti-Fy^b antibody LM447 to membrane-synthesised peptide [5]: Binding was also observed
Substance: PDGDYDANLEAAAP [CPep75, 14-mer immunisation peptide used in the development of the LM447 antibody, reference compound]
Reciprocal SPOTs hybridisation: binding of anti-Fy^b monoclonal antibody ([5]; FIG. 5, Spots 1-37 = Fya 1-37, Spots 38-40 = Fya17, Fya25, Fya35, Spot 41 Cpep75, 42 Cpep76, 43 CPep118, 44 Fyb1, membranes hybridised in parallel with both antibodies): capable of binding the anti-Fy^b antibody

Substance: RhD 83 (FHSDWPGQTFTW)
Panning Antibody (antibody that selected the phage-peptide in biopanning) [4]: RhD

Substance: RhD 29 (FHWPRSWVTWQS)
Panning Antibody (antibody that selected the phage-peptide in biopanning) [1]: RhD T22

Substance: RhD 92 (LHWWPTYGNNGM)
Panning Antibody (antibody that selected the phage-peptide in biopanning) [4]: RhD

Substance: RhD 32 (WPCHPICLSPRG)
Panning Antibody (antibody that selected the phage-peptide in biopanning) [1]: RhD T22

Substance: RhD 28 (NDYSDSNQVPAS)
Panning Antibody (antibody that selected the phage-peptide in biopanning) [1]: RhD T22

Substance: RhD 99 (GQKTHNPFHLHP)
Panning Antibody (antibody that selected the phage-peptide in biopanning) [4]: RhD

Substance: RhD 96 (SHWWTSILATPS)
Panning Antibody (antibody that selected the phage-peptide in biopanning) [4]: RhD

Substance: RhD 33 (AMDCFPICLWNP)
Panning Antibody (antibody that selected the phage-peptide in biopanning) [1]: RhD T22

Substance: RhD 91 (ALPELSSLPESAR)
Panning Antibody (antibody that selected the phage-peptide in biopanning) [4]: RhD

Substance: RhD 14 (DRRIFWWSLRSAPGA)
Panning Antibody (antibody that selected the phage-peptide in biopanning) [2]: RhD T27

Substance: RhD 16 (WGLWFSN)
Panning Antibody (antibody that selected the phage-peptide in biopanning) [1]: RhD T22

Substance: RhD 85 (FHSVYPWREAEG)
Panning Antibody (antibody that selected the phage-peptide in biopanning) [4]: RhD

Substance: RhD 38 (GNWLFNSCYPLCFPL)
Panning Antibody (antibody that selected the phage-peptide in biopanning) [1]: RhD T22

Substance: RhD 20 (WGLWWHT)
Panning Antibody (antibody that selected the phage-peptide in biopanning) [1]: RhD T22

SPOTs binding of anti-Fy^b antibody LM447 to membrane-synthesised peptide [5]: successfully bound
Substance: TFQPRSWPNIDL [Fyb12]

Substance: RhD 6 (FSPNNSETTNYT)
Panning Antibody (antibody that selected the phage-peptide in biopanning) [2]: RhD T27

SPOTs binding of anti-Fy^b antibody LM447 to consensus sequence-derived substituted peptides [5]: capable of binding
Substance: MFQPDNPPTKNP [Fyb84]

Substance: RhD 93 (FHRPYYWPPTPL)
Panning Antibody (antibody that selected the phage-peptide in biopanning) [4]: RhD

Substance: RhD 105 (APPYPGPLPLSL)
Panning Antibody (antibody that selected the phage-peptide in biopanning) [4]: RhD

Substance: RhD 88 (AGYQIGMPNPLL)
Panning Antibody (antibody that selected the phage-peptide in biopanning) [4]: RhD

SPOTs binding of anti-Fy^b antibody LM447 to membrane-synthesised peptide [5]: successfully bound
Substance: TFQYLDPPPFTP [Fyb13]

Substance: RhD 95 (IHWWVKSPPPGS)
Panning Antibody (antibody that selected the phage-peptide in biopanning) [4]: RhD

Substance: RhD 23 (DSRWLLP)
Panning Antibody (antibody that selected the phage-peptide in biopanning) [1]: RhD T22

Substance: RhD 98 (LHREWIYPYLIS)
Panning Antibody (antibody that selected the phage-peptide in biopanning) [4]: RhD

Substance: RhD 86 (FHSNWPSAYTAR)
Panning Antibody (antibody that selected the phage-peptide in biopanning) [4]: RhD

Substance: RhD 18 (WGLWSTP)
Panning Antibody (antibody that selected the phage-peptide in biopanning) [1]: RhD T22

Substance: RhD 12 (HQNPWLLWPRGF)
Panning Antibody (antibody that selected the phage-peptide in biopanning) [2]: RhD T27

Substance: RhD 8 (SNVPLHWILSPR)
Panning Antibody (antibody that selected the phage-peptide in biopanning) [2]: RhD T27

Substance: RhD 39 (AFLGHSHWFPSVASR)
Panning Antibody (antibody that selected the phage-peptide in biopanning) [1]: RhD T22

Substance: RhD 22 (LLGLTET)
Panning Antibody (antibody that selected the phage-peptide in biopanning) [1]: RhD T22

Substance: RhD 97 (FHWHLQPQLWSY)
Panning Antibody (antibody that selected the phage-peptide in biopanning) [4]: RhD

Substance: RhD 21 (WGLWWTG)
Panning Antibody (antibody that selected the phage-peptide in biopanning) [1]: RhD T22

Substance: RhD 17 (WGIWWNN)
Panning Antibody (antibody that selected the phage-peptide in biopanning) [1]: RhD T22

Substance: RhD 19 (WVHLQSP)
Panning Antibody (antibody that selected the phage-peptide in biopanning) [1]: RhD T22

Substance: RhD 5 (TPGSGQF)
Panning Antibody (antibody that selected the phage-peptide in biopanning) [2]: RhD T27

SPOTs binding of anti-Fy^b antibody LM447 to consensus sequence-derived substituted peptides [5]: capable of binding
Substance: MFQPDNPPTKNV [Fyb85]

Substance: RhD 1 (GLFKIQP)
Panning Antibody (antibody that selected the phage-peptide in biopanning) [2]: RhD T27

Substance: RhD 27 (WHWYPRFSPPSH)
Panning Antibody (antibody that selected the phage-peptide in biopanning) [1]: RhD T22

Substance: RhD 34 (WNCFPICHASGL)
Panning Antibody (antibody that selected the phage-peptide in biopanning) [1]: RhD T22

Substance: RhD 7 (TTVPDTWVLFPR)
Panning Antibody (antibody that selected the phage-peptide in biopanning) [2]: RhD T27

Substance: RhD 101 (FHRHYYPWALIQ)
Panning Antibody (antibody that selected the phage-peptide in biopanning) [4]: RhD

Substance: RhD 94 (FHWRLPYPLPSS)
Panning Antibody (antibody that selected the phage-peptide in biopanning) [4]: RhD

Substance: RhD 40 (QLLCFPICRPEPPVS)
Panning Antibody (antibody that selected the phage-peptide in biopanning) [1]: RhD T22

Substance: RhD 103 (SVSVGMKPSPRP)
Panning Antibody (antibody that selected the phage-peptide in biopanning) [4]: RhD

Substance: RhD 35 (VYALGCWPICHK)
Panning Antibody (antibody that selected the phage-peptide in biopanning) [1]: RhD T22

Substance: RhD 15 (LHAWHRNTIGWWIGF)
Panning Antibody (antibody that selected the phage-peptide in biopanning) [2]: RhD T27

Substance: RhD 90 (SPTSFRQVFGFY)
Panning Antibody (antibody that selected the phage-peptide in biopanning) [4]: RhD

Substance: RhD 11 (DVYDTRPYHGFM)
Panning Antibody (antibody that selected the phage-peptide in biopanning) [2]: RhD T27

Substance: RhD 2 (LGHHNPH)
Panning Antibody (antibody that selected the phage-peptide in biopanning) [2]: RhD T27

Substance: RhD 87 (FHSNWPSLIRAR)
Panning Antibody (antibody that selected the phage-peptide in biopanning) [4]: RhD

Substance: RhD 31 (TITDCYPICVSP)
Panning Antibody (antibody that selected the phage-peptide in biopanning) [1]: RhD T22
